23 molecules from US20060063784A1, “Method of using substituted pyrazolo [1,5-a] pyrimidines” (priority 2004, published 2006) can be followed below.

Like-named read-outs stand apart in the source and are kept apart here. Where only a bound is given, the exact number is not on record here.

The subject of assay [1] is 80S14 (p21-deficient) cells. Description: Cytotoxicity assay using isogenic cell lines: IC50 in 80S14 (p21-deficient) cells, SRB. In kind it is cell-based, human. The method, boiled down: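 80S14 (p21-deficient) cells seeded at 12,000 cells/well overnight, then exposed 5 days at 37 °C to serial dilutions (5 pM–50 μM or 170 pg/ml–10 μg/ml). TCA-fixed, sulforhodamine B-stained, absorbance at 560 nm; IC50 taken from cytotoxicity curves versus untreated controls.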

Assay [2] concerns LoVo Colon cell line. Description: Cytotoxicity assay using LoVo colon cell line, SRB. The note with it: read-out: Inhibition of LoVo. Type of assay: cell-based. The method, boiled down:
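LoVo cells (4000/well, RPMI 1640 with 10% FBS, 37 °C, 7% CO2) seeded overnight, then exposed 4 days to serial dilutions spanning 5 pM-20 μM or 170 pg/ml-10 μg/ml. Survival by SRB staining; IC50 from curves relative to untreated controls.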

Setting [3] is: Homo sapiens, 80S14, 120 h, read-out: IC50 for 80SI4 (uM).
The mark [4] stands for this setting: Homo sapiens, 120 h, 80S14 (p21-deficient) cells, 5 days, SRB, class symbols, read-out: IC50 for 80S14.
[5] abbreviates: Homo sapiens, 96 h, Cellular activity in LoVo cell, 4 days incubation, SRB.
Where [6] appears, read: Homo sapiens, 80S14, 120 h, read-out: IC50 for 80S14 (uM).

Regarding `CCCCN(C)C(=O)Nc1cccc(-c2ccnc3c(C(=O)c4cccs4)cnn23)c1` [Example 156, N-butyl-N-methyl-N′-{3-[3-(thien-2-ylcarbonyl)pyrazolo[1,5-a]primidin-7-yl]phenyl}urea], the IC50 in assay [1] (80S14 p21-deficient cells, 5 days incubation, SRB, read-out: IC50 for 80SI4) was under 1 µM; in assay [2] (LoVo colon cells, 4 days incubation, SRB), 100 to 1000 nM.
As for `CC(C)(C)CC(=O)Nc1cccc(-c2ccnc3c(C(=O)c4cccs4)cnn23)c1` [Example 55, 3,3-dimethyl-N-{3-[3-(thien-2-ylcarbonyl)pyrazolo[1,5-a]pyrimidin-7-yl]phenyl}butanamide], the IC50 in assay [1] (setting [3]) was under 1 µM; in assay [2] (Homo sapiens, LoVo, 96 h), under 100 nM.
For `O=C(c1cccs1)c1cnn2c(-c3cccc(NC(=O)C4CCCC4)c3)ccnc12` [Example 283, N-{3-[3-(2-Thienylcarbonyl)pyrazolo[1,5-a]pyrimidin-7-yl]phenyl}cyclopentanecarboxamide], the IC50 in assay [1] (setting [4]) was under 1 µM; in assay [2] (setting [5]), under 100 nM.
The corresponding values for `CC(C)CC(=O)Nc1cccc(-c2ccnc3c(-c4cc(Cl)cc(Cl)c4)cnn23)c1` [Example 475, N-{3-[3-(3,5-Dichlorophenyl)pyrazolo[1,5-a]pyrimidin-7-yl]phenyl}-3-methylbutanamide] are 1 to 10 µM and 1000 to 20000 nM.
The corresponding values for `O=C(c1cccs1)c1cnn2c(-c3cccc(-c4nnn(CC5CCC5)n4)c3)ccnc12` [Example 505, (7-{3-[2-(Cyclobutylmethyl)-2H-tetraazol-5-yl]phenyl}pyrazolo[1,5-a]pyrimidin-3-yl)(thien-2-yl)methanone] are under 1 µM and under 100 nM.
Taken in the same sequence, the figures for `CC#CC(=O)Nc1cccc(-c2ccnc3c(C(=O)c4cccs4)cnn23)c1` [Example 274, N-{3-[3-(2-Thienylcarbonyl)pyrazolo[1,5-a]pyrimidin-7-yl]phenyl}-2-butynamide] were under 1 µM and under 100 nM.
For the molecule “{7-[3-(1-Ethyl-1H-pyrazol-3-yl)phenyl]pyrazolo[1,5-a]pyrimidin-3-yl (thien-2-yl)methanone [Example 518]”, the IC50 in assay [1] (80S14 (p21-deficient) cells, 5 days, SRB, class symbols, read-out: IC50 for 80S14) is under 1 µM; in assay [2] (Cellular activity in LoVo cell, 4 days incubation, SRB), under 100 nM.
On to `CC(C)CC(=O)Nc1cccc(-c2ccnc3c(-c4cccc(Cl)c4Cl)cnn23)c1` [Example 473, N-{3-[3-(2,3-Dichlorophenyl)pyrazolo[1,5-a]pyrimidin-7-yl]phenyl}-3-methylbutanamide], for which the IC50 lay within 1 to 10 µM in assay [1] (setting [4]) and 100 to 1000 nM in assay [2] (setting [5]).
On to `O=C(c1cccs1)c1cnn2c(-c3cccc(-c4nnnn4CC4CCC4)c3)ccnc12` [Example 508, (7-{3-[1-(Cyclobutylmethyl)-1H-tetraazol-5-yl]phenyl}pyrazolo[1,5-a]pyrimidin-3-yl)(thien-2-yl)methanone], for which the IC50 in assay [1] (setting [4]) lay within 10 to 50 µM; in assay [2] (setting [5]) it was 1000 to 20000 nM.
The corresponding values for `O=C(Nc1cccc(-c2ccnc3c(C(=O)c4cccs4)cnn23)c1)c1c(Cl)cccc1Cl` [Example 384, 2,6-Dichloro-N-{3-[3-(thien-2-ylcarbonyl)pyrazolo[1,5-a]pyrimidin-7-yl]phenyl}benzamide] are 1 to 10 µM and 100 to 1000 nM.
The corresponding values for `O=C(c1cccs1)c1cnn2c(-c3cccc(NC(=S)Nc4ccccc4)c3)ccnc12` [Example 334, N-Phenyl-N′-{3-[3-(thien-2-ylcarbonyl)pyrazolo[1,5-a]pyrimidin-7-yl]phenyl}thiourea] are under 1 µM and 100 to 1000 nM.
The corresponding values for `N#CN=C(Nc1cccc(-c2ccnc3c(C(=O)c4cccs4)cnn23)c1)Oc1ccccc1` [Example 386, Phenyl N′-cyano-N-{3-[3-(thien-2-ylcarbonyl)pyrazolo[1,5-a]pyrimidin-7-yl]phenyl}imidocarbamate] are 1 to 10 µM and 1000 to 20000 nM.
Consider `O=C(Nc1cccc(-c2ccnc3c(C(=O)c4cccs4)cnn23)c1)c1cccnc1` [Example 290, N-{3-[3-(2-Thienylcarbonyl)pyrazolo[1,5-a]pyrimidin-7-yl]phenyl}nicotinamide], for which the figures for the IC50 in assay [1] (setting [4]) and in assay [2] (setting [5]) were under 1 µM and 100 to 1000 nM, respectively.
Taken in the same sequence, the figures for `O=C(Nc1cccc(-c2ccnc3c(C(=O)c4cccs4)cnn23)c1)c1c(F)cccc1F` [Example 359, 2,6-Difluoro-N-{3-[3-(thien-2-ylcarbonyl)pyrazolo[1,5-a]pyrimidin-7-yl]phenyl}benzamide] were under 1 µM and under 100 nM.
As for `CC(C)OC(=O)Nc1ccc(Cl)c(-c2ccnc3c(C(=O)c4cccs4)cnn23)c1` [Example 335, Isopropyl 4-chloro-3-[3-(thien-2-ylcarbonyl)pyrazolo[1,5-a]pyrimidin-7-yl]phenylcarbamate], the IC50 in assay [1] (setting [6]) is under 1 µM; in assay [2] (Homo sapiens, LoVo, 96 h), 100 to 1000 nM.
Regarding `Nc1ccc(-c2ccnc3c(C(=O)c4cccs4)cnn23)s1` [Example 345, [7-(5-Aminothien-2-yl)pyrazolo[1,5-a]pyrimidin-3-yl](thien-2-yl)methanone], the IC50 in assay [1] (setting [4]) fell in the range of 10 to 50 µM; in assay [2] (setting [5]), 1000 to 20000 nM.
Taken in the same sequence, the figures for `O=C(Nc1cc(-c2ccnc3c(C(=O)c4cccs4)cnn23)ccc1F)c1c(F)cccc1F` [Example 374, 2,6-Difluoro-N-{2-fluoro-5-[3-(thien-2-ylcarbonyl)pyrazolo[1,5-a]pyrimidin-7-yl]phenyl}benzamide] were under 1 µM and under 100 nM.
As for `CC(C)CCC(=O)Nc1cccc(-c2ccnc3c(C(=O)c4cccs4)cnn23)c1` [Example 56, 4-methyl-N-{3-[3-(thien-2-ylcarbonyl)pyrazolo[1,5-a]pyrimidin-7-yl]phenyl}pentanamide], the IC50 in assay [1] (setting [3]) was under 1 µM; in assay [2] (Homo sapiens, LoVo, 96 h) it was under 100 nM.
Regarding `Cc1ccc(-c2ccnc3c(C(=O)c4cccs4)cnn23)cc1NC(=O)NC(C)C` [Example 311, N-Isopropyl-N′-{2-methyl-5-[3-(2-thienylcarbonyl)pyrazolo[1,5-a]pyrimidin-7-yl]phenyl}urea], the IC50 in assay [1] (setting [4]) is under 1 µM; in assay [2] (setting [5]) it was under 100 nM.
The corresponding values for `O=C(c1nccs1)c1cnn2c(-c3cccc(NC(=O)C4CC4)c3)ccnc12` [Example 338, N-{3-[3-(1,3-Thiazol-2-ylcarbonyl)pyrazolo[1,5-a]pyrimidin-7-yl]phenyl}cyclopropanecarboxamide] are 1 to 10 µM and 100 to 1000 nM.
For `O=C(CCC(Cl)(Cl)Cl)Nc1cccc(-c2ccnc3c(C(=O)c4cccs4)cnn23)c1` [Example 354, 4,4,4-Trichloro-N-{3-[3-(thien-2-ylcarbonyl)pyrazolo[1,5-a]pyrimidin-7-yl]phenyl}butanamide], the IC50 in assay [1] (setting [4]) is under 1 µM; in assay [2] (setting [5]), under 100 nM.
Taken in the same sequence, the figures for `CC(C)CC(=O)Nc1cccc(-c2ccnc3c(-c4cccc(C=O)c4)cnn23)c1` [Example 487, N-{3-[3-(3-Formylphenyl)pyrazolo[1,5-a]pyrimidin-7-yl]phenyl}-3-methylbutanamide] were 10 to 50 µM and 1000 to 20000 nM.
As for `CC(C)OC(=O)Nc1cccc(-c2ccnc3c(C(=O)c4ccsc4)cnn23)c1` [Example 293, Isopropyl 3-[3-(3-thienylcarbonyl)pyrazolo[1,5-a]pyrimidin-7-yl]phenylcarbamate], the IC50 is under 1 µM in assay [1] (setting [6]) and under 100 nM in assay [2] (Homo sapiens, LoVo, 96 h).
